Four molecules from ChEMBL document CHEMBL1154817, “Tartrolon D, a cytotoxic macrodiolide from the marine-derived actinomycete Streptomyces sp. MDG-04-17-069” (J Nat Prod, 2009) can be followed below.

SMILES strings stand for the structures. Values after ≈ are worked out from the molar mass of the structure shown.

For one assay, the system named is A549. The assay can be described thus: Cytotoxicity against human A549 cells after 72 hrs by sulforhodamine B assay. The note with it: A549, 72 h. It counts as functional.
For a further assay, the system named is HT-29. The assay can be described thus: Cytotoxicity against human HT-29 cells after 72 hrs by sulforhodamine B assay. It counts as functional. The conditions noted are these: HT-29, 72 h.
A further assay relates to MDA-MB-231. As to the kind of experiment: Cytotoxicity against human MDA-MB-231 cells after 72 hrs by sulforhodamine B assay. It counts as functional. The note with it: MDA-MB-231, 72 h.
Another assay has as its system L929. The assay can be described thus: Cytotoxicity against mouse L929 cells. In kind it is functional.
Assay [1] in a line: Inhibition of hypoxia-induced HIF1 transcriptional activity.

For `COc1cccc2c1C(=O)c1c(O)c3c(c(O)c1C2=O)C[C@@](O)(C(C)=O)C[C@@H]3O[C@H]1C[C@H](N)[C@H](O)[C@H](C)O1` [DAUNORUBICIN], the values for the GI50 in the assay with A549, in the assay on HT-29 and with MDA-MB-231 were 80 nM, 70 nM and 20 nM, respectively. Moreover, the TGI in the assay on A549 worked out at 170 nM; in the assay on HT-29 it was 330 nM; in the assay on MDA-MB-231, 120 nM.
`C[C@@H]1C(=O)C[C@@H](O)CC/C=C/C=C\CC[C@H](C)OC(=O)C(O)[C@]2(O)O[C@@H](CC[C@H]2C)[C@H](C)C(=O)C[C@@H](O)CC/C=C/C=C\CC[C@H](C)OC(=O)C(O)[C@]2(O)O[C@H]1CC[C@H]2C` (some centres not stated) [TARTROLON A] returned an MIC against L929 of 70 µg/mL (≈ 82.4 µM).
In the case of `C[C@@H]1C(=O)C[C@@H](O)CC/C=C/C=C\CC[C@H](C)OC(=O)[C@@H]2O[B-]34O[C@@H](C(=O)O[C@@H](C)CC/C=C\C=C\CC[C@H](O)CC(=O)[C@@H](C)[C@@H]5CC[C@](C)(O)[C@]2(O5)O3)[C@@]2(O[C@H]1CC[C@]2(C)O)O4` [TARTROLON C], the IC50 in assay [1] was found to be 0.17 µg/mL.
In the assay with A549, `C[C@@H]1CC[C@H]2CC(=O)C[C@@H](O)CC/C=C/C=C\CC[C@H](C)OC(=O)C(O)[C@]3(O)O[C@@H](CC[C@H]3C)CC(=O)C[C@@H](O)CC/C=C/C=C\CC[C@H](C)OC(=O)C(O)[C@]1(O)O2` (some centres not stated) [TARTROLON D] gave a GI50 of 160 nM, an LC50 of 8050 nM and a TGI of 1460 nM. Besides, in the assay on HT-29, the GI50 is 310 nM, the LC50 (concentration killing 50% of cells) stood at 8410 nM and the TGI turned out to be 1710 nM. For the same molecule, in the assay with MDA-MB-231, the GI50 was 790 nM, the LC50 (50% lethal concentration) was found to be 11000 nM and total growth inhibition (TGI) required 3410 nM.
